How the values were obtained:
[1] = system: oat, wild; experiment: Test C postemergence; assay type: in vivo, Avena fatua; conditions: 10 days, 0 to 100 scale (0 no effect, 100 complete control)
In short: (§1)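 Visual injury ratings on a 0–100 scale (100 = complete control) were made against untreated controls 10 days after treatment in the greenhouse. Compounds, formulated with surfactant in non-phytotoxic solvent, were sprayed on soil preemergence or onto one- to two-leaf plants 2–10 cm tall postemergence.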

[2] = system: kochia; experiment: Test C postemergence; assay type: in vivo, Bassia scoparia; conditions: 10 days, 0 to 100 scale (0 no effect, 100 complete control)
In short: as §1

[3] = system: blackgrass; experiment: Test C postemergence; assay type: in vivo, Alopecurus myosuroides; conditions: 10 days, 0 to 100 scale (0 no effect, 100 complete control)
In short: as §1

[4] = system: barnyardgrass; experiment: Test C preemergence; assay type: in vivo, Echinochloa crusgalli
In short: as §1

[5] = system: ragweed; experiment: Test C postemergence; assay type: in vivo, Ambrosia artemisiifolia; conditions: 10 days, 0 to 100 scale (0 no effect, 100 complete control)
In short: as §1

[6] = system: galium; experiment: Test C postemergence; assay type: in vivo, Galium aparine; conditions: 10 days, 0 to 100 scale (0 no effect, 100 complete control)
In short: as §1

[7] = system: pigweed, palmer; experiment: Test C preemergence; assay type: in vivo, Amaranthus palmeri
In short: as §1

[8] = system: ryegrass, Italian; experiment: Test C postemergence; assay type: in vivo, Lolium multiflorum; conditions: 10 days, 0 to 100 scale (0 no effect, 100 complete control)
In short: as §1

[9] = system: ducksalad; experiment: Test D flooded paddy test; assay type: in vivo, Heteranthera limosa; conditions: 250 g ai/ha, applied to paddy water, visual rating after 13 to 14 days, scale 0 to 100 (0 no effect, 100 complete control)
In short: (§2)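 Post-flood water application at the 2-leaf stage; 3 cm flood depth kept constant; visual control rating 0–100 after 13–14 days greenhouse growth.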

[10] = system: oat, wild; experiment: Test C preemergence; assay type: in vivo, Avena fatua
In short: as §1

[11] = system: wheat; experiment: Test C preemergence; assay type: in vivo, Triticum aestivum
In short: as §1

[12] = system: corn; experiment: Test C postemergence; assay type: in vivo, Zea mays; conditions: 10 days, 0 to 100 scale (0 no effect, 100 complete control)
In short: as §1

[13] = system: rice; experiment: Test D flooded paddy test; assay type: in vivo, Oryza sativa; conditions: 250 g ai/ha, applied to paddy water, visual rating after 13 to 14 days, scale 0 to 100 (0 no effect, 100 complete control)
In short: as §2

[14] = system: foxtail, giant; experiment: Test C postemergence; assay type: in vivo, Setaria faberi; conditions: 10 days, 0 to 100 scale (0 no effect, 100 complete control)
In short: as §1

[15] = system: soybean; experiment: Test C preemergence; assay type: in vivo, Glycine max
In short: as §1

[16] = system: blackgrass; experiment: Test C preemergence; assay type: in vivo, Alopecurus myosuroides
In short: as §1

[17] = system: corn; experiment: Test C preemergence; assay type: in vivo, Zea mays
In short: as §1

[18] = system: horseweed; experiment: Test C postemergence; assay type: in vivo, Erigeron canadensis; conditions: 10 days, 0 to 100 scale (0 no effect, 100 complete control)
In short: as §1

[19] = system: wheat; experiment: Test C postemergence; assay type: in vivo, Triticum aestivum; conditions: 10 days, 0 to 100 scale (0 no effect, 100 complete control)
In short: as §1

[20] = system: ragweed; experiment: Test C preemergence; assay type: in vivo, Ambrosia artemisiifolia
In short: as §1

[21] = system: foxtail, giant; experiment: Test C preemergence; assay type: in vivo, Setaria faberi
In short: as §1

[22] = system: pigweed, palmer; experiment: Test C postemergence; assay type: in vivo, Amaranthus palmeri; conditions: 10 days, 0 to 100 scale (0 no effect, 100 complete control)
In short: as §1

[23] = system: ryegrass, Italian; experiment: Test C preemergence; assay type: in vivo, Lolium multiflorum
In short: as §1

[24] = system: kochia; experiment: Test C preemergence; assay type: in vivo, Bassia scoparia
In short: as §1

[25] = system: barnyardgrass; experiment: Test C postemergence; assay type: in vivo, Echinochloa crusgalli; conditions: 10 days, 0 to 100 scale (0 no effect, 100 complete control)
In short: as §1

[26] = system: sedge, umbrella; experiment: Test D flooded paddy test; assay type: in vivo, Cyperus difformis; conditions: 250 g ai/ha, applied to paddy water, visual rating after 13 to 14 days, scale 0 to 100 (0 no effect, 100 complete control)
In short: as §2

[27] = system: soybean; experiment: Test C postemergence; assay type: in vivo, Glycine max; conditions: 10 days, 0 to 100 scale (0 no effect, 100 complete control)
In short: as §1

[28] = system: barnyardgrass; experiment: Test D flooded paddy test; assay type: in vivo, Echinochloa crus-galli; conditions: 250 g ai/ha, applied to paddy water, visual rating after 13 to 14 days, scale 0 to 100 (0 no effect, 100 complete control)
In short: as §2

[29] = 500 g ai/ha, preemergence, 0 to 100 scale (0 no effect, 100 complete control)
[30] = Preemergence, 125 g ai/ha, 0 to 100 scale, 0 no effect, 100 complete control

Cc1ccc(-n2cncn2)cc1C(=O)N1CC(C(F)(F)F)Oc2c(Cl)cccc21 (stereo not shown) [Compound 346]
Plant response rating, Oat, Wild ([1]; 500 g ai/ha, postemergence): 60
Plant response rating, Oat, Wild ([1]; Postemergence, 125 g ai/ha): 0
Plant response rating, Kochia ([2]; 500 g ai/ha, postemergence): 80
Plant response rating, Kochia ([2]; Postemergence, 125 g ai/ha): 70
Plant response rating, Blackgrass ([3]; 500 g ai/ha, postemergence): 90
Plant response rating, Blackgrass ([3]; Postemergence, 125 g ai/ha): 80
Barnyardgrass plant response rating [4, 29]: 100
Plant response rating, Barnyardgrass [4, 30]: 70
Plant response rating, Ragweed ([5]; 500 g ai/ha, postemergence): 40
Plant response rating, Ragweed ([5]; Postemergence, 125 g ai/ha): 30
Plant response rating, Galium ([6]; 500 g ai/ha, postemergence): 100
Plant response rating, Galium ([6]; Postemergence, 125 g ai/ha): 100
Pigweed, Palmer plant response rating [7, 29]: 100
Plant response rating, Pigweed, Palmer [7, 30]: 100
Plant response rating, Ryegrass, Italian ([8]; 500 g ai/ha, postemergence): 80
Plant response rating, Ryegrass, Italian ([8]; Postemergence, 125 g ai/ha): 70
Plant response rating, Ducksalad (Flood) [9]: 65
Oat, Wild plant response rating [10, 29]: 40
Plant response rating, Oat, Wild [10, 30]: 0
Wheat plant response rating [11, 29]: 80
Plant response rating, Wheat [11, 30]: 0
Plant response rating, Corn ([12]; 500 g ai/ha, postemergence): 90
Plant response rating, Corn ([12]; Postemergence, 125 g ai/ha): 10
Plant response rating, Rice (Flood) [13]: 0
Plant response rating, Foxtail, Giant ([14]; 500 g ai/ha, postemergence): 90
Plant response rating, Foxtail, Giant ([14]; Postemergence, 125 g ai/ha): 90
Soybean plant response rating [15, 29]: 100
Plant response rating, Soybean [15, 30]: 30
Blackgrass plant response rating [16, 29]: 90
Plant response rating, Blackgrass [16, 30]: 80
Corn plant response rating [17, 29]: 90
Plant response rating, Corn [17, 30]: 0
Plant response rating, Horseweed ([18]; 500 g ai/ha, postemergence): 0
Plant response rating, Horseweed ([18]; Postemergence, 125 g ai/ha): 0
Plant response rating, Wheat ([19]; 500 g ai/ha, postemergence): 70
Plant response rating, Wheat ([19]; Postemergence, 125 g ai/ha): 20
Ragweed plant response rating [20, 29]: 10
Plant response rating, Ragweed [20, 30]: 0
Foxtail, Giant plant response rating [21, 29]: 100
Plant response rating, Foxtail, Giant [21, 30]: 100
Plant response rating, Pigweed, Palmer ([22]; 500 g ai/ha, postemergence): 70
Plant response rating, Pigweed, Palmer ([22]; Postemergence, 125 g ai/ha): 40
Ryegrass, Italian plant response rating [23, 29]: 90
Plant response rating, Ryegrass, Italian [23, 30]: 80
Kochia plant response rating [24, 29]: 80
Plant response rating, Kochia [24, 30]: 10
Plant response rating, Barnyardgrass ([25]; 500 g ai/ha, postemergence): 70
Plant response rating, Barnyardgrass ([25]; Postemergence, 125 g ai/ha): 40
Plant response rating, Sedge, Umbrella (Flood) [26]: 85
Plant response rating, Soybean ([27]; 500 g ai/ha, postemergence): 100
Plant response rating, Soybean ([27]; Postemergence, 125 g ai/ha): 90
Plant response rating, Barnyardgrass (Flood) [28]: 0
